Measurements reported in US8629328B2 (Monsanto Technology LLC, priority 2006, dated 2014).
Several values for one entry are separate records, joined by “and”; a condition that tells them apart may be missing. Equal entries are not always repeated. Where two headings read alike, the source gives them in different places.

How the values were obtained:
[1] = system: corn inbreds 01CSI6 and LH244; conditions: 0.5 lb/a at V3 followed by 1 lb/a at V8
Text: Transgenic corn plants were produced by the methods known in the art such as WO9506722 and US patent application 20040244075. […] Six events from each of the six constructs were used. […] The entire plot was fertilized uniformly to obtain an agronomically acceptable crop. A soil insecticide such as Force® 3G (Syngenta Crop Protection, Greensboro, N.C., USA) at 5 oz. per 1000 ft. of row for control of corn rootworm was applied at planting time. If black cutworm infestation was observed, POUNCE® 3.2EC at 4 to 8 oz. per acre rate (FMC Corporation, Philadelphia, Pa.) was used. In addition, an insecticide spray program was used to control all above ground lepidopteran pests including European corn borer, corn earworm, and fall armyworm. POUNCE® 3.2EC at 4 to 8 oz. per acre was applied every 3 weeks to control lepidopteran pests; about 4 applications were made. The plot was kept weed free with a pre-emergence application of a herbicide such as Harness® Xtra 5.6 L (Monsanto, St. Louis, Mo.) and Degree Xtra® (Monsanto, St. Louis, Mo.).
Brace root injury was evaluated visually by counting the number of plants in a row showing an “atypical” morphology of having the brace roots fused as compared to a typical morphology of “finger-like” structure.

[2] = system: soybean plants containing DMO-encoding polynucleotide construct (Events 1-5)
Text: Non-transgenic and transgenic soybean seeds were planted around the beginning of the growing season at the time of optimum growth conditions depending on soil moisture, temperature, and seeding depth. […] The design details were as follows: 6 locations, 2 replications/location, 2 rows/plot, row length 12 feet (+3 ft alley), 9 seeds/foot, 108 seeds/row, 5 events (Events 1-4 and a fifth event that was segregating); and 4 treatments as shown below in Table 5. In all 240 plots were planted at 6 locations (40 per location).
Four non-transgenic border rows were planted all around the trial using a known commercial line such as A3525. Optimum production and management practices known in the art were followed. […] The field was irrigated as needed according to standard practices.
Seed planting and pre-emergence treatment were carried out approximately one-month apart in late spring in Monmouth, Ill.

[3] = Event 1, Post at V3: 1.5 lb/acre 4 weeks after planting
[4] = Event 1, Pre & Post: 1.5 lb/acre at planting and 1.5 lb/acre 4 weeks after planting
[5] = Event 1, Pre at sowing: 1.5 lb/acre at planting
[6] = Event 2, Post at V3: 1.5 lb/acre 4 weeks after planting
[7] = Event 2, Pre & Post: 1.5 lb/acre at planting and 1.5 lb/acre 4 weeks after planting
[8] = Event 2, Pre at sowing: 1.5 lb/acre at planting
[9] = Event 3, Post at V3: 1.5 lb/acre 4 weeks after planting
[10] = Event 3, Pre & Post: 1.5 lb/acre at planting and 1.5 lb/acre 4 weeks after planting
[11] = Event 3, Pre at sowing: 1.5 lb/acre at planting
[12] = Event 4, Post at V3: 1.5 lb/acre 4 weeks after planting
[13] = Event 4, Pre & Post: 1.5 lb/acre at planting and 1.5 lb/acre 4 weeks after planting
[14] = Event 4, Pre at sowing: 1.5 lb/acre at planting
[15] = Event 5 (segregating), Post at V3: 1.5 lb/acre 4 weeks after planting
[16] = Event 5 (segregating), Pre & Post: 1.5 lb/acre at planting and 1.5 lb/acre 4 weeks after planting
[17] = Event 5 (segregating), Pre at sowing: 1.5 lb/acre at planting

In the case of `COc1c(Cl)ccc(Cl)c1C(=O)O` [dicamba, 3,6-dichloro-o-anisic acid], the “Percentage brace root injury” value ([1]; 01CSI6, susceptible inbred to dicamba) is reported as 95.4%, the “Percentage brace root injury” value ([1]; LH244, resistant inbred to dicamba) is reported as 93.8% and the “% GR 6/27” value [2, 3] is reported as 0%. The “% GR 7/5” value [2, 3] was 0%, the “% Inj 6/7” value [2, 3] was 0% and the “% Inj 6/13” value [2, 3] was 0%. For the same molecule, the “% Inj 6/20” value [2, 3] was 0%, the “% Inj 6/27” value [2, 3] was 5% and 7% and the “% Inj 7/5” value [2, 3] was 0%. For the same molecule, the “% GR 6/27” value [2, 4] was 0% and 3%, the “% GR 7/5” value [2, 4] was 0% and the “% Inj 6/7” value [2, 4] was 0%. For the same molecule, the “% Inj 6/13” value [2, 4] was 0% and 2%, the “% Inj 6/20” value [2, 4] was 0% and 2% and the “% Inj 6/27” value [2, 4] was 5%. The “% Inj 7/5” value [2, 4] was 0%, the “% GR 6/27” value [2, 5] was 0% and the “% GR 7/5” value [2, 5] was 0%. For the same molecule, the “% Inj 6/7” value [2, 5] was 0%, the “% Inj 6/13” value [2, 5] was 0% and 2% and the “% Inj 6/20” value [2, 5] was 0%. For the same molecule, the “% Inj 6/27” value [2, 5] was 1% and 2%, the “% Inj 7/5” value [2, 5] was 0% and the “Dead or Stunted” value [2, 5] was 0. For the same molecule, the “% GR 6/27” value [2, 6] was 0%, the “% GR 7/5” value [2, 6] was 0% and the “% Inj 6/7” value [2, 6] was 0%. The “% Inj 6/13” value [2, 6] was 0%, the “% Inj 6/20” value [2, 6] was 0% and the “% Inj 6/27” value [2, 6] was 3%. The “% Inj 7/5” value [2, 6] was 0% and 2%, the “% GR 6/27” value [2, 7] was 0% and the “% GR 7/5” value [2, 7] was 0%. The “% Inj 6/7” value [2, 7] was 0%, the “% Inj 6/13” value [2, 7] was 0% and the “% Inj 6/20” value [2, 7] was 0%. The “% Inj 6/27” value [2, 7] was 1% and 2%, the “% Inj 7/5” value [2, 7] was 2% and 0% and the “Dead or Stunted” value [2, 7] was 0. The “% GR 6/27” value [2, 8] was 0%, the “% GR 7/5” value [2, 8] was 0% and the “% Inj 6/7” value [2, 8] was 0%. For the same molecule, the “% Inj 6/13” value [2, 8] was 0%, the “% Inj 6/20” value [2, 8] was 0% and the “% Inj 6/27” value [2, 8] was 5% and 2%. For the same molecule, the “% Inj 7/5” value [2, 8] was 0%, the “Dead or Stunted” value [2, 8] was 0 and the “% GR 6/27” value [2, 9] was 3% and 0%. The “% GR 7/5” value [2, 9] was 0%, the “% Inj 6/7” value [2, 9] was 0% and the “% Inj 6/13” value [2, 9] was 0%. For the same molecule, the “% Inj 6/20” value [2, 9] was 0%, the “% Inj 6/27” value [2, 9] was 3% and 5% and the “% Inj 7/5” value [2, 9] was 0% and 3%. For the same molecule, the “Dead or Stunted” value [2, 9] was 0, the “% GR 6/27” value [2, 10] was 0% and the “% GR 7/5” value [2, 10] was 0%. The “% Inj 6/7” value [2, 10] was 0%, the “% Inj 6/13” value [2, 10] was 0% and 2% and the “% Inj 6/20” value [2, 10] was 0%. For the same molecule, the “% Inj 6/27” value [2, 10] was 3%, the “% Inj 7/5” value [2, 10] was 2% and 0% and the “Dead or Stunted” value [2, 10] was 0. The “% GR 6/27” value [2, 11] was 0%, the “% GR 7/5” value [2, 11] was 0% and the “% Inj 6/7” value [2, 11] was 0%. The “% Inj 6/13” value [2, 11] was 4% and 2%, the “% Inj 6/20” value [2, 11] was 0% and the “% Inj 7/5” value [2, 11] was 0% and 3%. For the same molecule, the “Dead or Stunted” value [2, 11] was 0, the “% GR 6/27” value [2, 12] was 0% and the “% GR 7/5” value [2, 12] was 0%. The “% Inj 6/7” value [2, 12] was 0%, the “% Inj 6/13” value [2, 12] was 0% and the “% Inj 6/20” value [2, 12] was 0%. The “% Inj 6/27” value [2, 12] was 3%, the “% Inj 7/5” value [2, 12] was 0% and the “Dead or Stunted” value [2, 12] was 0. The “% GR 6/27” value [2, 13] was 8% and 3%, the “% GR 7/5” value [2, 13] was 2% and 0% and the “% Inj 6/7” value [2, 13] was 0%. For the same molecule, the “% Inj 6/13” value [2, 13] was 0% and 1%, the “% Inj 6/20” value [2, 13] was 0% and the “% Inj 6/27” value [2, 13] was 3%. The “% Inj 7/5” value [2, 13] was 2% and 0%, the “Dead or Stunted” value [2, 13] was 0 and the “% GR 6/27” value [2, 14] was 0%. For the same molecule, the “% GR 7/5” value [2, 14] was 0%, the “% Inj 6/7” value [2, 14] was 0% and the “% Inj 6/13” value [2, 14] was 3% and 4%. For the same molecule, the “% Inj 6/20” value [2, 14] was 0%, the “% Inj 6/27” value [2, 14] was 5% and 2% and the “% Inj 7/5” value [2, 14] was 0%. For the same molecule, the “Dead or Stunted” value [2, 14] was 0, the “% GR 6/27” value [2, 15] was 0% and 5% and the “% GR 7/5” value [2, 15] was 0%. The “% Inj 6/7” value [2, 15] was 0%, the “% Inj 6/13” value [2, 15] was 0% and the “% Inj 6/20” value [2, 15] was 0%. The “% Inj 6/27” value [2, 15] was 7% and 5%, the “% Inj 7/5” value [2, 15] was 2% and the “Dead or Stunted” value [2, 15] was 15. The “% GR 6/27” value [2, 16] was 5% and 0%, the “% GR 7/5” value [2, 16] was 0% and the “% Inj 6/7” value [2, 16] was 0%. The “% Inj 6/13” value [2, 16] was 15% and 10%, the “% Inj 6/20” value [2, 16] was 10% and the “% Inj 6/27” value [2, 16] was 3% and 1%. The “% Inj 7/5” value [2, 16] was 0%, the “Dead or Stunted” value [2, 16] was 23 and 20 and the “% GR 6/27” value [2, 17] was 0%. For the same molecule, the “% GR 7/5” value [2, 17] was 0%, the “% Inj 6/7” value [2, 17] was 0% and the “% Inj 6/13” value [2, 17] was 15% and 8%. For the same molecule, the “% Inj 6/20” value [2, 17] was 15% and 10%, the “% Inj 6/27” value [2, 17] was 5% and 2% and the “% Inj 7/5” value [2, 17] was 0%. For the same molecule, the “Dead or Stunted” value [2, 17] was 24 and 14 and the “injury in field, overall” value ([2]; pre- and post-emergence applications of dicamba, all transgenic soybean plants) was “no or very little injury”.
